In series [1] the target is UDP-glucuronosyltransferase 1A8 (Homo sapiens, UniProt Q9HAW9). Kind of series: Drug metabolism assessed as human recombinant UGT1A8-mediated compound formation treated with AMG 853 at 10 uM after 30 mins by LC-MS/MS analysis. In kind it is ADME. The note with it: recombinant enzyme, 0.5 h.
Series [2] deals with T1, UDP-glucuronosyltransferase 2B7 (Homo sapiens, UniProt P16662).
T1 sequence (P16662 whole entry): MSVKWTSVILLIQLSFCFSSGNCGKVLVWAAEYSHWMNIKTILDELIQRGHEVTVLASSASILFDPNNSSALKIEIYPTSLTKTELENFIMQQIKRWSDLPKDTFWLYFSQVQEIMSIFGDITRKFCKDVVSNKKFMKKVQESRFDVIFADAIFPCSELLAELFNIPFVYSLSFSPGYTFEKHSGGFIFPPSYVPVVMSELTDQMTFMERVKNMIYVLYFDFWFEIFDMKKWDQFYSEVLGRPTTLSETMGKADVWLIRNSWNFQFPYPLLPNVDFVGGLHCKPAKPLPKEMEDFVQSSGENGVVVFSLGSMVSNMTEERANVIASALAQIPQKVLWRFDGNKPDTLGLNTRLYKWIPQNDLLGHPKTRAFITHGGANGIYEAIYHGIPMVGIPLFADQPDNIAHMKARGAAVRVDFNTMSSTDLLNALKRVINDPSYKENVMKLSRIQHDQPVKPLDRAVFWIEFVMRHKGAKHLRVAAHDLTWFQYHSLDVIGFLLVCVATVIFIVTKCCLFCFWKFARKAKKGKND
Briefly: Drug metabolism assessed as human recombinant UGT2B7-mediated compound formation treated with AMG 853 after 45 mins by LC-MS/MS analysis in presence of UDPGA. In kind it is ADME. The note with it: recombinant enzyme, 0.75 h.

A short description of series [3]: Drug metabolism in human liver microsomes assessed as […]-mediated compound formation after 15 mins by LC-MS/MS analysis in presence of UDPGA. In kind it is ADME. The note with it: 0.25 h. For orientation: Liver microsomes are vesicles of endoplasmic reticulum, rich in cytochrome P450 enzymes.
Series [4] has as its target T1, UDP-glucuronosyltransferase 2B7. Briefly: Drug metabolism assessed as human recombinant UGT2B7-mediated (2S,3S,4S,5R,6S)-6-(2-(4-(4-(tert-butylcarbamoyl)-2-(2-chloro-4-cyclopropylphenylsulfonamido)phenoxy)-5-chloro-2-fluorophenyl)acetoxy)-3,4,5-trihydroxytetrahydro-2H-pyran-2-carboxylic acid formation at 10 uM after 30 mins by LC-MS/MS analysis. The format is ADME. The note with it: recombinant enzyme, 0.5 h.

Series [5] concerns the target UDP-glucuronosyltransferase 1A4 (Homo sapiens, UniProt P22310). Briefly: Drug metabolism assessed as human recombinant UGT1A4-mediated (2S,3S,4S,5R,6S)-6-(2-(4-(4-(tert-butylcarbamoyl)-2-(2-chloro-4-cyclopropylphenylsulfonamido)phenoxy)-5-chloro-2-fluorophenyl)acetoxy)-3,4,5-trihydroxytetrahydro-2H-pyran-2-carboxylic acid formation at 10 uM after 30 mins by LC-MS/MS analysis. In kind it is ADME. The note with it: recombinant enzyme, 0.5 h.

The next series addresses CYP2B6 (Homo sapiens, UniProt P20813). Kind of series: Induction of CYP2B6 in human hepatocytes using bupropion as substrate at 0.3 to 30 uM treated every 24 hrs for 2 days measured on day 5 by LC-MS/MS analysis relative to control. In kind it is ADME, cell-based, Hepatocyte. Conditions: probe bupropion, read-out: FC.
Series [6] can be described thus: Cmax in healthy human at 50 mg, po. More on the design: dose 50 mg, route oral. Conditions: in vivo. The format is ADME, organism-based.
Series [7] is described as follows: Drug metabolism in human liver microsomes assessed as […]-mediated (2S,3S,4S,5R,6S)-6-(2-(4-(4-(tert-butylcarbamoyl)-2-(2-chloro-4-cyclopropylphenylsulfonamido)phenoxy)-5-chloro-2-fluorophenyl)acetoxy)-3,4,5-trihydroxytetrahydro-2H-pyran-2-carboxylic acid formation after 15 mins by LC-MS/MS analysis in presence of UDPGA. In kind it is ADME. The note with it: 0.25 h.

Series [8] deals with UDP-glucuronosyltransferase 2B17 (Homo sapiens, UniProt O75795). Kind of series: Drug metabolism assessed as human recombinant UGT2B17-mediated (2S,3S,4S,5R,6S)-6-(2-(4-(4-(tert-butylcarbamoyl)-2-(2-chloro-4-cyclopropylphenylsulfonamido)phenoxy)-5-chloro-2-fluorophenyl)acetoxy)-3,4,5-trihydroxytetrahydro-2H-pyran-2-carboxylic acid formation at 10 uM after 30 mins by LC-MS/MS analysis. In kind it is ADME. Conditions: recombinant enzyme, 0.5 h.
Chain of UDP-glucuronosyltransferase 2B17 (O75795 whole entry): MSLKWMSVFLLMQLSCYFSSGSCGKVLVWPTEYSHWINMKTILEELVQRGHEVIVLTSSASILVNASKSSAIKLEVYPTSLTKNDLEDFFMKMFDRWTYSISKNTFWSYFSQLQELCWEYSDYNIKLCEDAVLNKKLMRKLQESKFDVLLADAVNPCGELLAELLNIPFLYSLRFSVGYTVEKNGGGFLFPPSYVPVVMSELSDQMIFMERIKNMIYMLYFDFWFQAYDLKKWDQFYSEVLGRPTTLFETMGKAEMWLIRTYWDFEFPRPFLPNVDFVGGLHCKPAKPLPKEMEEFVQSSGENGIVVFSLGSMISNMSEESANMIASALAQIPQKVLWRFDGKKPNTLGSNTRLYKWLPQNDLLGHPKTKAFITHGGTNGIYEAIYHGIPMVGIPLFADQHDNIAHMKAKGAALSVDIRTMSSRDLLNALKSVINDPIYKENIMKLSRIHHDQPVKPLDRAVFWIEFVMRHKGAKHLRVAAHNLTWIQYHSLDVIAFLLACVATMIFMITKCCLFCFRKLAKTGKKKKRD

Series [9] has as its target T2, Cytochrome P450 3A5 (Homo sapiens, UniProt P20815). Briefly: Drug metabolism assessed as recombinant CYP3A5 (unknown origin)-mediated 2-(5-chloro-4-(2-(2-chloro-4-cyclopropylphenylsulfonamido)-4-(1-hydroxy-2-methylpropan-2-ylcarbamoyl)phenoxy)-2-fluorophenyl)acetic acid formation at 10 uM after 30 mins by LC-MS/MS analysis. The format is ADME. Conditions: recombinant enzyme, 0.5 h.

Series [10] deals with T3, Cytochrome P450 3A7 (Homo sapiens, UniProt P24462). Kind of series: Drug metabolism assessed as recombinant CYP3A7 (unknown origin)-mediated 2-(5-chloro-4-(2-(2-chloro-4-cyclopropylphenylsulfonamido)-4-(1-hydroxy-2-methylpropan-2-ylcarbamoyl)phenoxy)-2-fluorophenyl)acetic acid formation at 10 uM after 30 mins by LC-MS/MS analysis. The note with it: recombinant enzyme, 0.5 h. In kind it is ADME.
T3 sequence (P24462 whole entry): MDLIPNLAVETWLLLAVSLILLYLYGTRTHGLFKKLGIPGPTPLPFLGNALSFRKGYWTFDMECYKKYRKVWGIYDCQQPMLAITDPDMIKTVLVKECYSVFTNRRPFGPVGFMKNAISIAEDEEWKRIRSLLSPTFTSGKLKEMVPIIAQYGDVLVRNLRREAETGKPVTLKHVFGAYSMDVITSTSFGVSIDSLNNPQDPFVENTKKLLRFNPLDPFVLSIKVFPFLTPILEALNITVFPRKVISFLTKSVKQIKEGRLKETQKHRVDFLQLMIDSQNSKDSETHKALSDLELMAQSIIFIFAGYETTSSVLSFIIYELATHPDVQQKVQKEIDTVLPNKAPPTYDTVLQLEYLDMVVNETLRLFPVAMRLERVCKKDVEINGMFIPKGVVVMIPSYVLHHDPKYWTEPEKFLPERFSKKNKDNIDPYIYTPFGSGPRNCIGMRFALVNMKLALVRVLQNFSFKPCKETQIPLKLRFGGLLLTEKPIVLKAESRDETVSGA

The target of the next series is T4, Cytochrome P450 2J2 (Homo sapiens, UniProt P51589).
T4 sequence (P51589 whole entry): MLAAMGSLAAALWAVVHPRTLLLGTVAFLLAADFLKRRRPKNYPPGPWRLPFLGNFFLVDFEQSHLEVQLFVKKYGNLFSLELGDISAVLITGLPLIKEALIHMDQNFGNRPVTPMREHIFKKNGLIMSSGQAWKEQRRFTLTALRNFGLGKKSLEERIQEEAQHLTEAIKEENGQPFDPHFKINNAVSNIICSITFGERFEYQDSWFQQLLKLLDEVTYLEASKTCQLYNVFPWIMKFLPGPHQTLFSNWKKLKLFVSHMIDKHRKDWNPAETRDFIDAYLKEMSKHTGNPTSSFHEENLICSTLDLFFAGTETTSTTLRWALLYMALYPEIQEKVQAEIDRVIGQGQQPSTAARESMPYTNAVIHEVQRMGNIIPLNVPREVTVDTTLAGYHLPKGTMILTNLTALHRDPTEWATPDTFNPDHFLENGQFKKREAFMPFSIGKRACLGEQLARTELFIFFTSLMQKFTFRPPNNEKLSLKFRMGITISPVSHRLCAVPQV
Kind of series: Drug metabolism assessed as recombinant CYP2J2 (unknown origin)-mediated 2-(4-(4-(tert-butylcarbamoyl)-2-(2-chloro-4-(1-hydroxycyclopropyl)phenylsulfonamido)phenoxy)-5-chloro-2-fluorophenyl)acetic acid formation at 10 uM after 30 mins by LC-MS/MS analysis. Conditions: recombinant enzyme, 0.5 h. The format is ADME.

The target in series [11] is T2, Cytochrome P450 3A5. Briefly: Drug metabolism assessed as recombinant CYP3A5 (unknown origin)-mediated 2-(4-(4-(tert-butylcarbamoyl)-2-(2-chloro-4-(1-hydroxycyclopropyl)phenylsulfonamido)phenoxy)-5-chloro-2-fluorophenyl)acetic acid formation at 10 uM after 30 mins by LC-MS/MS analysis. The format is ADME. The note with it: recombinant enzyme, 0.5 h.
Series [12] deals with T3, Cytochrome P450 3A7. Kind of series: Drug metabolism assessed as recombinant CYP3A7 (unknown origin)-mediated 2-(4-(4-(tert-butylcarbamoyl)-2-(2-chloro-4-(1-hydroxycyclopropyl)phenylsulfonamido)phenoxy)-5-chloro-2-fluorophenyl)acetic acid formation at 10 uM after 30 mins by LC-MS/MS analysis. Conditions: recombinant enzyme, 0.5 h. In kind it is ADME.
For the next series, the system named is Liver microsome. Kind of series: Drug metabolism in human liver microsomes assessed as 2-(5-chloro-4-(2-(2-chloro-4-cyclopropylphenylsulfonamido)-4-(1-hydroxy-2-methylpropan-2-ylcarbamoyl)phenoxy)-2-fluorophenyl)acetic acid formation at 2 uM after 60 mins by LC-MS/MS analysis in presence of ketoconazole. In kind it is ADME. Conditions: 1 h.
The nature of series [13]: Fraction unbound in plasma (unknown origin). The format is ADME, cell-free.

Each structure is given as a SMILES string.

T2 sequence (P20815 whole entry): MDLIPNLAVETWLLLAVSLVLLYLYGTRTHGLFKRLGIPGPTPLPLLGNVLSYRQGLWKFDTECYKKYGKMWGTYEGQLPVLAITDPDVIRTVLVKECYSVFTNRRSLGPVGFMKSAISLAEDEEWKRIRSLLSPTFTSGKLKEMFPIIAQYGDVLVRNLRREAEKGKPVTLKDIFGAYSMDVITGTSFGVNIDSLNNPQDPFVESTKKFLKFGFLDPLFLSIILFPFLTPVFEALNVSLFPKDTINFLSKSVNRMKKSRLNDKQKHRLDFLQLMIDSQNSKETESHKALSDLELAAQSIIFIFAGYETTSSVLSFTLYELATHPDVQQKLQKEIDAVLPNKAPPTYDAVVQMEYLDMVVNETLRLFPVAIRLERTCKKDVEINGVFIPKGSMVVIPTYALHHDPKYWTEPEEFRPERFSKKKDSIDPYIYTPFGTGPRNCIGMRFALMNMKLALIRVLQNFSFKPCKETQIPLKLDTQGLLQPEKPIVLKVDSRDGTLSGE
Chain of CYP2B6 (P20813 whole entry): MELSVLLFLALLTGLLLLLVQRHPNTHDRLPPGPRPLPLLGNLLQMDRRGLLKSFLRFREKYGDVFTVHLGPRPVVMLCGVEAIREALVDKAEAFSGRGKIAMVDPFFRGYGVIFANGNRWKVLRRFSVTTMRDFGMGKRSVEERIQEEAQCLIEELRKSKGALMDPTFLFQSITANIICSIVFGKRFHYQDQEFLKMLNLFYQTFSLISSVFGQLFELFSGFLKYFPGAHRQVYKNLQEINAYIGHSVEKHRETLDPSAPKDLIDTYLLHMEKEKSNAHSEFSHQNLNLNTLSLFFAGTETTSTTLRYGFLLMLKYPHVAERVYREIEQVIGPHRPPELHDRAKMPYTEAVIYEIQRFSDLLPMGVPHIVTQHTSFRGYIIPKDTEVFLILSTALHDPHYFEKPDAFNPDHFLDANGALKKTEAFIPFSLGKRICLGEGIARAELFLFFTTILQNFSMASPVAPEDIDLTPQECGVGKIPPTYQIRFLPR
Chain of UDP-glucuronosyltransferase 1A4 (P22310 whole entry): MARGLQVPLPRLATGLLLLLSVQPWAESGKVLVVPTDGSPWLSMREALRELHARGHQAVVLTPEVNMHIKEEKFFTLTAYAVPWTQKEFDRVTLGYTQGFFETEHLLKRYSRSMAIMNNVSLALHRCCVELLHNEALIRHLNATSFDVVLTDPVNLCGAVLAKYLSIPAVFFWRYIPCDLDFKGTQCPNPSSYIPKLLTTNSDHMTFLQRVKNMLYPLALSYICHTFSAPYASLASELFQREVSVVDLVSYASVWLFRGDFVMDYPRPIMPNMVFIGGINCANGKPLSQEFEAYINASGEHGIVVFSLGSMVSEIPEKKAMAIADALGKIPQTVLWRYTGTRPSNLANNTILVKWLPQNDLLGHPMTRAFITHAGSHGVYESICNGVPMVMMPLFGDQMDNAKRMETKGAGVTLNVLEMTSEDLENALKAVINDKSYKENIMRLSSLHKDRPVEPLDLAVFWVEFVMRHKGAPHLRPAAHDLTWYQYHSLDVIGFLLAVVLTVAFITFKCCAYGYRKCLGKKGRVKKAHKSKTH
Chain of UDP-glucuronosyltransferase 1A8 (Q9HAW9 whole entry): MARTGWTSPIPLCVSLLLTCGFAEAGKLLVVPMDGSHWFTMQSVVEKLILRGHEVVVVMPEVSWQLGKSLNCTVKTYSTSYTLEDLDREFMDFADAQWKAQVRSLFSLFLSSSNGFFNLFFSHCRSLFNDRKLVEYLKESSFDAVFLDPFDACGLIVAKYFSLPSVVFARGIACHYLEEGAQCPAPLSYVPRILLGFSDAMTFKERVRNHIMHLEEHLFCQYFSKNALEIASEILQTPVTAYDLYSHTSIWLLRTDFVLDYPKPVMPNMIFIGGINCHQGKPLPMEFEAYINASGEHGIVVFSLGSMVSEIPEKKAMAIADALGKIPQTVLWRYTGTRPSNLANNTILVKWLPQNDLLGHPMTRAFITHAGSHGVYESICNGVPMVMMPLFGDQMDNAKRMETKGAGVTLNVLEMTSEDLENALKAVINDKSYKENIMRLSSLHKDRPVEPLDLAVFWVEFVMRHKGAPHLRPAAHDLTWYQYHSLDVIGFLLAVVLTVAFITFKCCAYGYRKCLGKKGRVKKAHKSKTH

As a reminder, the Vmax is the top rate of the reaction or transport when substrate is in excess. On to `CC(C)(C)NC(=O)c1ccc(Oc2cc(F)c(CC(=O)O[C@@H]3O[C@H](C(=O)O)[C@@H](O)[C@H](O)[C@H]3O)cc2Cl)c(NS(=O)(=O)c2ccc(C3CC3)cc2Cl)c1`, for which the Drug metabolism entry in [1] and in [3] was “metabolite_detected” in each case. The S50 in [2] was found to be 183.4 µM. Further, the Vmax in [2] is 13.6 pmol/min/mg.

As a reminder, the Cmax is the highest concentration seen after dosing. Broadly, the fraction unbound is the share of the substance not bound to proteins or other matrix. A higher fraction unbound goes with weak binding. Take `CC(C)(C)NC(=O)c1ccc(Oc2cc(F)c(CC(=O)O)cc2Cl)c(NS(=O)(=O)c2ccc(C3CC3)cc2Cl)c1` [VIDUPIPRANT]: the Drug metabolism result in series [4] is listed as “metabolite_detected”; in [5], “metabolite_detected”; in series [7], “metabolite_detected”; in series [8], “metabolite_not_detected”; on Cytochrome P450 3A5 [9] it was “metabolite_detected”; at Cytochrome P450 3A7 [10], “metabolite_detected”. Moreover, the Drug metabolism result at Cytochrome P450 2J2 was “metabolite_detected”; on Cytochrome P450 3A5 [11], “metabolite_detected”; on Cytochrome P450 3A7 [12], “metabolite_detected”; in the series with Liver microsome, “metabolite_not_detected”. For the same molecule, the fold induction at 48 h, up to 30 µM at CYP2B6 came out at 1.4. Besides, the Cmax in [6] was found to be 227 ng/mL. The molecule also showed a fraction unbound in [13] of 0.003.

The record behind these values is ChEMBL document CHEMBL3526017, “Predicting the drug interaction potential of AMG 853, a dual antagonist of the D-prostanoid and chemoattractant receptor-homologous molecule expressed on T helper 2 cells receptors” (Drug Metab Dispos, 2012).
